# Reference: patent US20240417410A1, “TRICYCLIC COMPOUNDS FOR THE TREATMENT OF CANCER” (Hoffmann-La Roche Inc., priority 2023, published 2024)
# Legend:
# [1] = system: AGS cells (KRAS G12D); experiment: Cell viability assay (Cell Counting Kit-8, 3-day); type: cell-based, human; conditions: Homo sapiens, 72 h, 72 hrs incubation
# Procedure: (§1) The purpose of this cellular assay was to determine the effects of test compounds on the proliferation of human cancer cell lines NCI-H358 (ATCC-CRL5807) cells, AGS (ATCC-CRL-1739) cells, SW620 (ATCC-CCL-227) over a 3-day treatment period by quantifying the amount of NADPH present at endpoint using Cell Counting Kit-8.
# (§2) Cells were seeded at 5,000 cells/well (NCI-H358), 2,000 cells/well (AGS) 2,000 cells/well (SW620) in 96-well assay plates (Corning-3699) and incubated overnight. On the day of the assay, diluted compounds were then added in a final concentration of 0.5% DMSO. After 72 hrs incubation, a tenth of the volume of cell counting kit 8 (Dnjindo-CK04) was added into each well. Read the signal (OD450 minus OD650) using EnVision after 2 hrs incubation. IC50 was determined by fitting a 4-parameter sigmoidal concentration response model.
# [2] = system: SW620 cells (KRAS G12V); experiment: Cell viability assay (Cell Counting Kit-8, 3-day); type: cell-based, human; conditions: Homo sapiens, SW-620; SW620, 72 hrs incubation
# Procedure: as §1, §2
# [3] = system: NCI-H358 cells (KRAS G12C); experiment: Cell viability assay (Cell Counting Kit-8, 3-day); type: cell-based, human; conditions: Homo sapiens, NCI-H358, 72 h, NCI-H358, 72 hrs incubation
# Procedure: as §1, §2
# [4] = system: phosphorylation of ERK, KRAS G12D in AGS cells; experiment: pERK inhibition assay; type: cell-based; conditions: Homo sapiens, AGS, 4 h
# Procedure: (§3) This assay is to measure the ability of test compounds in inhibiting the phosphorylation of ERK, the downstream signaling of KRAS G12C in NCI-H358 cells, KRAS G12D in AGS cells, and KRAS G12V in SW620. NCI-H358 (ATCC-CRL5807) cells, AGS (ATCC-CRL-1739) cells, SW620 (ATCC-CCL-227) cells were all grown and maintained using RPMI-1640 medium (Thermo Fisher Scientific) with 10% fetal bovine serum and 1% penicillin/streptomycin. On the day prior to compound addition, cells were plated in tissue culture-treated 96 well plates (Corning-3699) at a density of 30,000 cell/well, 20,000 cell/well, 30,000 cell/well for NCI-H358, AGS and SW620 respectively, and allowed for attachment overnight. Diluted compounds were then added in a final concentration of 0.5% DMSO. After 4 hours of incubation, the medium was removed, 100 μL of 4% formaldehyde was added, and the assay plates were incubated at room temperature for 20 minutes. The plates were then washed once with phosphate buffered saline (PBS), and permeabilized with 100 μL of chilled methanol for 10 minutes. Non-specific antibody binding to the plates was blocked using 50 μL 1X BSA blocking buffer (Thermo-37520, 10-fold dilution by Phosphate-Buffered Saline Tween (PBST) for at least 1 hour at room temperature.
# (§4) The amount of phosphor-ERK was determined using an antibody specific for phosphorylated form of ERK. Primary antibody (PERK, CST-4370, Cell Signaling Technology) was diluted 1:300 in blocking buffer, with 50 μL aliquoted to each well, and incubated overnight at 4° C. Cells was washed five times for 5 minutes with PBST. Secondary antibody (HRP-linked anti-rabbit IgG, CST-7074, Cell Signaling Technology) was diluted 1:1000 in blocking buffer, and 50 μL was added to each well and incubated 1-2 hrs at room temperature. Cells was washed […] for 5 minutes with PBST, 100 μL TMB ELISA substrate (abcam-ab171523) were added and gently shake for 20 minutes. 50 μL stop solution (abcam-ab 171529) were added, and then read the signal (OD450) by EnVision.
# (§5) IC50 was determined by fitting a 4-parameter sigmoidal concentration response model.
# [5] = system: phosphorylation of ERK, KRAS G12V in SW620; experiment: pERK inhibition assay; type: cell-based; conditions: Homo sapiens, SW-620, 4 h, SW620 cells
# Procedure: as §3, §4, §5
# [6] = system: phosphorylation of ERK, KRAS G12C in NCI-H358 cells; experiment: pERK inhibition assay; type: cell-based; conditions: Homo sapiens, NCI-H358, 4 h
# Procedure: as §3, §4, §5
Compound,IC50 [1] [nM],IC50 [2] [nM],IC50 [3] [nM],IC50 [4] [nM],IC50 [5] [nM],IC50 [6] [nM]
"CO[C@@H](C)c1ncc(N2CCOCC2)cc1-c1c2c3cc(cc4c3n1CC(F)(F)C4)-c1csc(n1)C[C@H](NC(=O)[C@H]1C[C@@H]1c1ccccc1)C(=O)N1CCC[C@H](N1)C(=O)OCC(C)(C)C2 (atropisomer, axis not shown; (M)) [Example 79, (1S,2S)-N-[(7S,13S)-23,23-difluoro-(20M)-20-[2-[(1S)-1-methoxyethyl]-5-morpholino-3-pyridyl]-17,17-dimethyl-8,14-dioxo-15-oxa-4-thia-9,21,30,31-tetrazahexacyclo[23.3.1.1^2,5.1^9,13.0^19,27.0^21,26]hentriaconta-1 (28),2,5 (31),19,25 (29),26-hexaen-7-yl]-2-phenyl-cyclopropanecarboxamide]",57,3.2,13.2,16.2,1.4,1.6
"CO[C@@H](C)c1ncc(N2CCN(C)CC2)cc1-c1c2c3cc(cc4c3n1CCC4)-c1csc(n1)C[C@H](NC(=O)C1(C)CC1(F)F)C(=O)N1CCC[C@H](N1)C(=O)OCC(C)(C)C2 (stereo partly drawn) [Example 19, 2,2-difluoro-N-[(7S,13S)-(20M)-20-[2-[(1S)-1-methoxyethyl]-5-(4-methylpiperazin-1-yl)-3-pyridyl]-17,17-dimethyl-8,14-dioxo-15-oxa-4-thia-9,21,30,31-tetrazahexacyclo[23.3.1.1^2,5.1^9,13.0^19,27.0^21,26]hentriaconta-1 (28),2,5 (31),19,25 (29),26-hexaen-7-yl]-1-methyl-cyclopropanecarboxamide]",98.7,3.8,17.1,20.7,2.7,1.9
"CO[C@@H](C)c1ncc(N2CCN(C)CC2)cc1-c1c2c3cc(cc4c3n1CCC4)-c1csc(n1)C[C@H](NC(=O)[C@@H]1C[C@H]1c1ccccc1F)C(=O)N1CCC[C@H](N1)C(=O)OCC(C)(C)C2 [Example 28, (1R,2R)-2-(2-fluorophenyl)-N-[(7S,13S)-(20M)-20-[2-[(1S)-1-methoxyethyl]-5-(4-methylpiperazin-1-yl)-3-pyridyl]-17,17-dimethyl-8,14-dioxo-15-oxa-4-thia-9,21,30,31-tetrazahexacyclo[23.3.1.1^2,5.1^9,13.0^19,27.0^21,26]hentriaconta-1 (28),2,5 (31),19,25 (29),26-hexaen-7-yl]cyclopropanecarboxamide]",22.3,1.5,7,9.4,1.3,1.2
"CO[C@@H](C)c1ncc(N2CCN(C)CC2)cc1-c1c2c3cc(cc4c3n1CCC4)-c1csc(n1)C[C@H](NC(=O)[C@H]1C[C@@H]1c1ccccc1F)C(=O)N1CCC[C@H](N1)C(=O)OCC(C)(C)C2 [Example 29, (1S,2S)-2-(2-fluorophenyl)-N-[(7S,13S)-(20M)-20-[2-[(1S)-1-methoxyethyl]-5-(4-methylpiperazin-1-yl)-3-pyridyl]-17,17-dimethyl-8,14-dioxo-15-oxa-4-thia-9,21,30,31-tetrazahexacyclo[23.3.1.1^2,5.1^9,13.0^19,27.0^21,26]hentriaconta-1 (28),2,5 (31),19,25 (29),26-hexaen-7-yl]cyclopropanecarboxamide]",11.4,0.8,2.5,1.6,< 0.6,< 0.6
"CO[C@@H](C)c1ncc(N2CCN(C)CC2)cc1-c1c2c3cc(cc4c3n1CCC4)-c1csc(n1)C[C@H](NC(=O)[C@H]1C[C@@H]1c1ccncc1)C(=O)N1CCC[C@H](N1)C(=O)OCC(C)(C)C2 [Example 57, (1S,2S)-N-[(7S,13S)-(20M)-20-[2-[(1S)-1-methoxyethyl]-5-(4-methylpiperazin-1-yl)-3-pyridyl]-17,17-dimethyl-8,14-dioxo-15-oxa-4-thia-9,21,30,31-tetrazahexacyclo[23.3.1.1^2,5.1^9,13.0^19,27.0^21,26]hentriaconta-1 (28),2,5 (31), 19,25 (29),26-hexaen-7-yl]-2-(4-pyridyl)cyclopropanecarboxamide]",27.6,1.5,5.4,6.1,1.3,1.1
"CO[C@@H](C)c1ncc(N2CCN(C)CC2)cc1-c1c2c3cc(cc4c3n1CCC4)-c1csc(n1)C[C@H](NC(=O)[C@@H]1C[C@H]1c1ccncc1)C(=O)N1CCC[C@H](N1)C(=O)OCC(C)(C)C2 [Example 58, (1R,2R)-N-[(7S,13S)-(20M)-20-[2-[(1S)-1-methoxyethyl]-5-(4-methylpiperazin-1-yl)-3-pyridyl]-17,17-dimethyl-8,14-dioxo-15-oxa-4-thia-9,21,30,31-tetrazahexacyclo[23.3.1.1^2,5.1^9,13.0^19,27.0^21,26]hentriaconta-1 (28),2,5 (31),19,25 (29),26-hexaen-7-yl]-2-(4-pyridyl)cyclopropanecarboxamide]",38.5,2,7.6,20.5,4.9,6.4
"CO[C@@H](C)c1ncc(N2CCOCC2)cc1-c1c2c3cc(cc4c3n1C(C)(C)CC4)-c1csc(n1)C[C@H](NC(=O)[C@H]1C[C@@H]1C)C(=O)N1CCC[C@H](N1)C(=O)OCC(C)(C)C2 [Example 125, (1S,2S)-N-[(7S,13S)-(20M)-20-[2-[(1S)-1-methoxyethyl]-5-morpholino-3-pyridyl]-17,17,22,22-tetramethyl-8,14-dioxo-15-oxa-4-thia-9,21,30,31-tetrazahexacyclo[23.3.1.1^2,5.1^9,13.0^19,27.0^21,26]hentriaconta-1 (29),2,5 (31),19,25,27-hexaen-7-yl]-2-methyl-cyclopropanecarboxamide]",4720,208,1100,481,84,303
"CO[C@@H](C)c1ncc(N2CCOCC2)cc1-c1c2c3cc(cc4c3n1CCCC4)-c1csc(n1)C[C@H](NC(=O)[C@H]1[C@H](C)[C@@H]1C)C(=O)N1CCC[C@H](N1)C(=O)OCC(C)(C)C2 [Example 126, (1r,2R,3S)-N-[(7S,13S)-(20M)-20-[2-[(1S)-1-methoxyethyl]-5-morpholino-3-pyridyl]-17,17-dimethyl-8,14-dioxo-15-oxa-4-thia-9,21,31,32-tetrazahexacyclo[24.3.1.1^2,5.1^9,13.0^19,28.0^19,28.0^21,27]dotriaconta-1 (29),2,5 (32),19,26 (30),27-hexaen-7-yl]-2,3-dimethyl-cyclopropanecarboxamide]",757,7,40,50,3,5
"CO[C@@H](C)c1ncc(N2CCN(C)CC2)cc1-c1c2c3cc(cc4c3n1CCCCC4)-c1csc(n1)C[C@H](NC(=O)[C@H]1[C@H](C)[C@@H]1C)C(=O)N1CCC[C@H](N1)C(=O)OCC(C)(C)C2 [Example 127, (1r,2R,3S)-N-[(7S,13S)-(20M)-20-[2-[(1S)-1-methoxyethyl]-5-(4-methylpiperazin-1-yl)-3-pyridyl]-17,17-dimethyl-8,14-dioxo-15-oxa-4-thia-9,21,32,33-tetrazahexacyclo[25.3.1.1^2,5.1^9,13.0^19,29.0^21,28]tritriaconta-1 (30),2,5 (33),19,27 (31),28-hexaen-7-yl]-2,3-dimethyl-cyclopropanecarboxamide]",1000,27,1000,697,30,30
